Test results taken from patent publication US10407454B2, “Defined enzymatic synthesis of lipid A analogs” (The Board of Trustees of the Leland Stanford Junior …, priority 2016, dated 2019).

Target: T1, TLR4 (Homo sapiens, UniProt O00206+Q9Y6Y9)
T1 construct: endogenous in cells; host or cells: HUVEC
Test: TLR signaling assay: IL-6 release (ELISA) from LPS-stimulated HUVEC cells pretreated with Lipid IVA or analogs
Assay type: cell-based
Details: 1 hour pretreatment, then 100 ng/mL LPS, supernatant 18 hours after LPS, mean ± SD of triplicate wells (LPS only: 425 ± 7)
Experimental: Antagonistic Effect of Unsaturated Lipid IVA. To examine the antagonistic effect of the Lipid IVA analogues produced by our reconstituted system, products from sample 1-3 were assayed against LPS stimulated HUVEC microphage cell line. IL-6 level was measured as an indicator of TLR4 suppression. As a negative control, an in vitro reaction lacking acetyl-CoA was run and processed in parallel. Lipid IVA samples was quantified via mass spectrometry by comparing with a standard curve generated from synthetic Lipid IVA standard. […]
TLR Signaling Assays. HUVECs were grown to approximately 80% confluency in plastic 48-well cell culture plates. Six hours prior to the beginning the assay, medium was aspirated and replaced with 200 μL fresh medium per well. 100× stock dilutions of LPS (in sterile water) and Lipid IVa (in methanol) were freshly prepared from lyophilized solids. Cells were subjected to a 1-hour preincubation with the indicated amounts of Lipid IVa, or Samples 1, 2, or 3, and then LPS (100 ng/mL) was added. Aliquots of the culture supernatant were taken after 18 hours, frozen at −20 C, and then analyzed for IL-6 using a commercial ELISA kit following the manufacturer's (eBioSciences) recommended protocol.

T1 sequence (O00206 24-839): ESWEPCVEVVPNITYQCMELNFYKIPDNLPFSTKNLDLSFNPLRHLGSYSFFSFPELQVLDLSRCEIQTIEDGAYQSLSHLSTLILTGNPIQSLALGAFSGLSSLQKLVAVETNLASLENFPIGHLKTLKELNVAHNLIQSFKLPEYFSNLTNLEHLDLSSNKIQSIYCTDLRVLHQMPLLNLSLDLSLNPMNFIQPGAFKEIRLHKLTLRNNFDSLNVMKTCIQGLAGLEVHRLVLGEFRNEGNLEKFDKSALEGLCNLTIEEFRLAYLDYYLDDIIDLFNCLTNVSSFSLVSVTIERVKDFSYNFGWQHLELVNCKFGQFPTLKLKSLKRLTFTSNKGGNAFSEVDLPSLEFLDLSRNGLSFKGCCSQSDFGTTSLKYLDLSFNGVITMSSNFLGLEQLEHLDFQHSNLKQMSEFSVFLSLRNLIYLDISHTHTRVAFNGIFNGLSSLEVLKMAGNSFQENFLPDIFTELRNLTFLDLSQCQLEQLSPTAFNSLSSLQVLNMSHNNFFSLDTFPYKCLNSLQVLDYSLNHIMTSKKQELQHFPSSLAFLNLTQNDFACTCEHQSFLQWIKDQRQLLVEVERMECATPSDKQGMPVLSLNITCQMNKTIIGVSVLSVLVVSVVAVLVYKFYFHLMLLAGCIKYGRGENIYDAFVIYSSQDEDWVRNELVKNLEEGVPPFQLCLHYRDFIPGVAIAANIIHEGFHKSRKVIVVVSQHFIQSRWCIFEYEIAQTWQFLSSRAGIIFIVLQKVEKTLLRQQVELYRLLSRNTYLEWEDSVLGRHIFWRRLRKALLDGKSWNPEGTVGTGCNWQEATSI
T1 sequence (Q9Y6Y9 19-160): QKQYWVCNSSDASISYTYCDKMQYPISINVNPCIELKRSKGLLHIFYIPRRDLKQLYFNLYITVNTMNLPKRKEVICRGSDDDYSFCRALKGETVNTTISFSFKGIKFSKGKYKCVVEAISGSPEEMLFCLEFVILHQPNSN

[IL-6] (pg/mL) in HUVEC culture supernatant (10 ng/mL compound): 484 ± 25 pg/mL
[IL-6] (pg/mL) in HUVEC culture supernatant (100 ng/mL compound): 212 ± 33 pg/mL
[IL-6] (pg/mL) in HUVEC culture supernatant (500 ng/mL compound): 57 ± 3 pg/mL
Compound: CCCCCCCCCCC[C@@H](O)CC(=O)N[C@H]1[C@H](OC[C@H]2O[C@H](OP(=O)(O)O)[C@H](NC(=O)C[C@H](O)CCCCCCCCCCC)[C@@H](OC(=O)C[C@H](O)CCCCCCCCCCC)[C@@H]2O)O[C@H](CO)[C@@H](OP(=O)(O)O)[C@@H]1OC(=O)C[C@H](O)CCCCCCCCCCC [Lipid IVA]
